Experimental data as given in PubChem BioAssay (NCI).
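Compound exposure: 48 hours, 5 concentrations, 96-well plates. GI50 = concentration required for 50% inhibition of growth. The concentration for full growth arrest is given as TGI.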

Columns and labels:
Experiment in all cases: growth of human tumour cells (NCI), 48 h
A549 NSCLC = test system: A549 NSCLC
LOX IMVI melanoma = test system: LOX IMVI melanoma
OVCAR-8 ovarian = test system: OVCAR-8 ovarian
ACHN renal = test system: ACHN renal
IGROV1 ovarian = test system: IGROV1 ovarian
SK-OV-3 ovarian = test system: SK-OV-3 ovarian
OVCAR-5 ovarian = test system: OVCAR-5 ovarian
SR leukemia = test system: SR leukemia
786-0 renal = test system: 786-0 renal
HCC-2998 colon = test system: HCC-2998 colon

Row | Compound | TGI (A549 NSCLC) [µM] | TGI (LOX IMVI melanoma) [µM] | TGI (OVCAR-8 ovarian) [µM] | TGI (ACHN renal) [µM] | TGI (IGROV1 ovarian) [µM] | TGI (SK-OV-3 ovarian) [µM] | TGI (OVCAR-5 ovarian) [µM] | TGI (SR leukemia) [µM] | TGI (786-0 renal) [µM] | TGI (HCC-2998 colon) [µM] | GI50 (A549 NSCLC) [µM] | GI50 (LOX IMVI melanoma) [µM] | GI50 (OVCAR-8 ovarian) [µM] | GI50 (ACHN renal) [µM] | GI50 (HCC-2998 colon) [µM] | GI50 (IGROV1 ovarian) [µM] | GI50 (SK-OV-3 ovarian) [µM] | GI50 (OVCAR-5 ovarian) [µM] | GI50 (786-0 renal) [µM]
1 | CCOC(=O)CC(=O)ON(C)C(=O)Cc1ccccc1 | > 100 | > 100 | > 100 | > 100 | > 100 | > 100 | > 100 | > 100 | > 100 | – | – | – | – | – | – | – | – | – | –
2 | Cc1ccc2nc3c(Cl)cc(=O)cc-3sc2c1 | 43 | – | 43.4 | 54.4 | 38.1 | – | – | – | 35.7 | – | – | – | – | – | – | – | – | – | –
3 | O=C(CC(=O)N1N=C(n2ccc3ccccc32)CC1c1ccccc1)Nc1cccc(Cl)c1 (stereo unspecified) | > 100 | > 100 | > 100 | > 100 | > 100 | > 100 | > 100 | – | > 100 | > 100 | – | – | – | – | – | – | – | – | –
4 | CC(=O)OC1(C#N)CC2OC1C1C2N1C(=O)c1ccccc1 (stereo unspecified) | > 100 | > 100 | > 100 | > 100 | > 100 | > 100 | > 100 | – | > 100 | > 100 | – | – | – | – | – | – | – | – | –
5 | NC(=O)c1ccccc1NC(=O)C(=O)C(C(=O)c1ccc2ccccc2c1)C1OC(=O)c2ccccc21 (stereo unspecified) | 50.5 | 29.9 | – | > 100 | 46.6 | 75.2 | 67.1 | – | 19.9 | 20.1 | – | – | – | – | – | – | – | – | –
6 | COc1ccc(/C=C/C(=O)c2sc(N)nc2C)cc1 | > 100 | > 100 | > 100 | – | > 100 | > 100 | > 100 | – | > 100 | > 100 | – | – | – | – | – | – | – | – | –
7 | COC(=O)CCC(NC(=S)N/N=C(\C)c1ccccn1)C(=O)OC (stereo unspecified) | > 100 | > 100 | > 100 | > 100 | > 100 | > 100 | > 100 | – | > 100 | > 100 | – | – | – | – | – | – | – | – | –
8 | Nc1nnc2nc(CC(=O)/C=C/c3ccccc3)c(=O)[nH]n12 | > 100 | > 100 | > 100 | > 100 | > 100 | > 100 | > 100 | – | > 100 | > 100 | – | – | – | – | – | – | – | – | –
9 | Cc1ccc(-n2c3c(c4c(CN5CCCCC5)c(O)ccc42)CCc2ccccc2C3=O)cc1 | > 100 | > 100 | > 100 | > 100 | > 100 | > 100 | > 100 | – | > 100 | > 100 | > 100 | > 100 | 46 | > 100 | > 100 | 39.9 | > 100 | > 100 | 33.5
10 | O=C(c1cc(=O)c2ccc(O)cc2o1)c1ccc(Cl)cc1Cl | > 100 | > 59.1 | > 100 | > 100 | > 100 | > 100 | > 100 | – | > 64.4 | 58.8 | – | – | – | – | – | – | – | – | –
11 | CN(C)CCNC(=O)c1cccc2nc3ccc4ccccc4c3nc12 | 0.253 | 0.228 | 0.284 | – | – | 2.06 | 0.55 | – | 1.99 | 0.282 | – | – | – | – | – | – | – | – | –
12 | CC(C)c1cc(C(C)C)c(S(=O)(=O)NN)c(C(C)C)c1 | > 100 | > 100 | > 100 | > 100 | > 100 | – | > 100 | > 100 | > 100 | – | – | – | – | – | – | – | – | – | –
13 | C=CCC(C(=O)OC)C1(C(=O)OC)c2[nH]c3ccccc3c2CCN1Cc1ccccc1 (stereo unspecified) | > 100 | – | > 100 | – | > 100 | > 100 | > 100 | > 100 | > 100 | > 100 | – | – | – | – | – | – | – | – | –
14 | Cc1ccc(SSCCCS(=O)O)cc1 | > 100 | 32.3 | 50 | > 100 | 27.4 | 85.9 | > 100 | – | > 100 | > 100 | – | – | – | – | – | – | – | – | –
15 | O=C(Oc1cccnc1)c1ccccc1Nc1ccnc(C(F)(F)F)c1 | > 100 | > 37.8 | > 100 | > 74.6 | > 100 | > 100 | > 95.9 | – | 4.64 | 15.1 | 0.589 | 0.0406 | 0.413 | 0.353 | 0.363 | 21.7 | 0.25 | 0.63 | 0.158
16 | C/C(CN1C(=O)c2ccccc2C1=O)=N\NS(=O)(=O)c1ccccc1 | > 100 | > 100 | > 100 | > 100 | > 100 | > 100 | > 100 | – | > 100 | > 100 | – | – | – | – | – | – | – | – | –
17 | CCOc1ccccc1NC(=O)C(=O)CC(=O)C1=C(C)Nc2ccccc2S1 | > 100 | > 100 | > 100 | > 100 | > 100 | > 100 | > 100 | – | > 100 | > 100 | – | – | – | – | – | – | – | – | –
